Source: PubChem BioAssay (NCI)
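All cell lines were grown in 96-well plates and treated with compound for 48 hours. TGI marks complete inhibition of growth.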

Experiments:
Test in all cases: inhibition of tumour cell growth, NCI panel, 48 h
[1] = system: U251 CNS
[2] = system: SR leukemia
[3] = system: UACC-257 melanoma
[4] = system: RPMI-8226 leukemia
[5] = system: HL-60(TB) leukemia
[6] = system: MOLT-4 leukemia
[7] = system: OVCAR-8 ovarian
[8] = system: HT29 colon
[9] = system: MDA-MB-231 breast
[10] = system: SF-295 CNS
[11] = system: HCT-116 colon
[12] = system: LOX IMVI melanoma

| Structure (SMILES) | TGI [1] [µM] | TGI [2] [µM] | TGI [3] [µM] | TGI [4] [µM] | TGI [5] [µM] | TGI [6] [µM] | TGI [7] [µM] | TGI [8] [µM] | TGI [9] [µM] | TGI [10] [µM] | TGI [11] [µM] | TGI [12] [µM] |
| --- | --- | --- | --- | --- | --- | --- | --- | --- | --- | --- | --- | --- |
| O=[N+]([O-])c1cc(C2ON=C(c3ccccc3)N2C23CC4CC(CC(C4)C2)C3)ccc1Cl (stereo not drawn) | > 100 | > 100 | > 100 | > 100 | > 100 | > 100 | > 100 | > 100 | > 100 | > 100 | > 100 | > 100 |
| N#C[C@H](c1nc2ccccc2[nH]1)c1nc2ccccc2nc1Cl | 58.9 | 13.8 | > 62.5 | 36.7 | 3.12 | 16.8 | > 100 | > 52.2 | 35.3 | > 100 | 24.2 | 29.3 |
| COC(=O)/C=C/[C@H]1[C@H](C)N1S(=O)(=O)c1ccc(C)cc1 (stereo partly drawn) | > 100 | > 100 | > 100 | > 100 | > 100 | > 100 | > 100 | > 100 | > 100 | > 100 | > 100 | > 100 |
| NC(=O)NC(=O)c1cccc(C(=O)NC(N)=O)n1 | > 100 | > 100 | > 100 | > 100 | > 100 | > 100 | > 100 | > 100 | > 100 | > 100 | > 100 | > 100 |
| O=C(CCCN1CCC(Nc2ccc(F)cc2)(c2nnnn2C2CCCCC2)CC1)c1ccc(F)cc1 | 29.2 | > 100 | 57.3 | 34.4 | 40.4 | > 100 | 63.4 | > 100 | 36 | 40.9 | 26.1 | > 100 |
| CC1(C)C/C=C\CCC(O)C(O)CCC(C)(C)C1=O (stereo not drawn) | > 100 | > 100 | > 100 | > 100 | > 100 | > 100 | > 100 | > 100 | > 100 | > 100 | > 100 | > 100 |
| CC1=NN(c2cccc(S(=O)(=O)O)c2)C2(C1)SCC(=O)N2c1nc2ccccc2s1 (stereo not drawn) | > 100 | > 100 | > 100 | > 100 | > 100 | > 100 | > 100 | > 100 | > 100 | > 100 | > 100 | > 100 |
| COc1ccc(/C=C2/C(=O)C(c3ccccc3)N(c3ccccc3)C2=O)cc1OC (stereo not drawn) | > 10 | > 10 | > 10 | > 10 | > 10 | > 10 | > 10 | > 10 | > 10 | > 10 | > 10 | > 10 |
| COc1cc(CNC(=O)CCCCCCCCCCSC#N)ccc1O | 34.1 | 91.5 | 41.1 | 59.5 | 28.9 | 31.1 | 43.2 | 87.2 | > 100 | 37.4 | 28.1 | 33 |
| COC1=C2C[C@](OC)(C#CC=CC#CC2O)CC1(C)C (stereo partly drawn) | > 100 | > 100 | > 100 | > 100 | > 100 | > 100 | > 100 | > 100 | > 100 | > 100 | > 100 | > 100 |
| O=C1OCC(CN2CCC(n3c(=O)[nH]c4ccccc43)CC2)=C1c1ccccc1 | > 100 | 82.5 | 47.3 | 56.1 | 40.7 | 60 | 31.6 | 58.6 | 79.3 | 72.6 | 92.7 | 56.2 |
| O=C(CN1CCOCC1)c1ccc2c(c1)oc(=O)n2CCN1CCCCC1 | > 100 | > 100 | > 100 | > 100 | > 100 | > 100 | > 100 | > 100 | > 100 | > 100 | > 100 | > 100 |
| O=C1CCCC1C(O)(C(F)(F)Cl)C(F)(F)Cl (stereo not drawn) | > 10 | > 10 | > 10 | > 10 | > 10 | > 10 | > 10 | > 10 | > 10 | > 10 | > 10 | > 10 |
| CC(=O)Oc1ccc(C2SCc3nc4ccccc4n32)cc1 (stereo not drawn) | > 100 | > 73 | > 100 | > 100 | 37.8 | 46.4 | > 100 | > 100 | > 100 | > 100 | > 100 | > 100 |
